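Results reflect a 48-hour exposure of cells in 96-well plates to compound at five concentrations. TGI: concentration producing complete growth inhibition.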

Holding throughout (assay): growth of human tumour cells (NCI), 48 h
In assay [1] the test system is NCI-H522 lung.
The subject of assay [2] is HT29 colon.
Assay [3] concerns TK-10 renal.
In assay [4] the test system is SK-OV-3 ovarian.
The subject of assay [5] is T-47D breast.
The test system of assay [6] is IGROV1 ovarian.
The test system of assay [7] is NCI-H460 lung.
The test system of assay [8] is OVCAR-8 ovarian.
Assay [9] relates to UO-31 renal.
The subject of assay [10] is SK-MEL-28 melanoma.

In the case of `Cc1ccc2nc(-c3ccc(NC(=O)c4ccc(N)cc4)c(S(=O)(=O)O)c3)sc2c1`, the TGI in assay [1], in assay [2], in assay [3], in assay [4], in [5] and in assay [6] was greater than 100 µM each time. Besides, the TGI in assay [7], in assay [8], in [9] and in [10] was greater than 100 µM throughout.

As to `N=c1ccc2nc(N)nn(O)c-2c1`, the TGI in assay [1], in assay [2], in [3], in [4], in assay [5] and in assay [6] was greater than 100 µM each time. The TGI in [7], in assay [8], in assay [9] and in assay [10] was greater than 100 µM each time.

Take `O=C(CC(c1ccccc1)C1C(=O)NC(=S)NC1=O)c1ccc([N+](=O)[O-])cc1` (stereo not given): the TGI in [1], in [2], in assay [3], in [4], in [5] and in [6] was greater than 100 µM each time. Further, the TGI in assay [7], in [8], in assay [9] and in assay [10] was greater than 100 µM each time.

Take `O=C(/C=C1\N=C(c2ccccc2)N(c2nc3c(Cl)cc(Cl)cc3s2)C1=O)/C=C/c1ccccc1`: the TGI in assay [1], in assay [2], in assay [3], in assay [4], in assay [5] and in assay [6] was greater than 100 µM each time. Also, the TGI in assay [7], in assay [8], in assay [9] and in assay [10] was greater than 100 µM throughout.

For the molecule `Cc1oc(N)c(S(=O)(=O)c2cc3ccccc3n(O)c2=N)c1C`, the TGI in [1], in assay [2], in [3], in [4], in assay [5] and in assay [6] was greater than 100 µM throughout. In addition, the TGI in assay [7], in assay [8], in assay [9] and in assay [10] was greater than 100 µM each time.

On to `Nc1cc(S(=O)(=O)O)cc2ccc(S(=O)(=O)O)cc12`, for which the TGI in [1], in [2], in [3], in assay [4], in assay [5] and in assay [6] was greater than 100 µM in each case. Further, the TGI in assay [7], in assay [8], in [9] and in [10] was greater than 100 µM each time.

Turning to `CC1(C(=O)O)C[C@](C)(C(=O)OCc2ccccc2)C[C@](C)(C(=O)OCc2ccccc2)C1` (stereo not given in full), the TGI was 60 µM in assay [1]; greater than 100 µM in [2]; greater than 100 µM in [3]; greater than 100 µM in [4]; greater than 100 µM in assay [5]; 52.7 µM in [6]. For the same molecule, the TGI is 57.5 µM in assay [7], greater than 100 µM in assay [8], 40.7 µM in assay [9] and greater than 100 µM in assay [10].

Take `Cc1cc(C)c2c(=O)n(CC(O)CN3CCN(CCOCCO)CC3)sc2n1` (stereo not given): the TGI in assay [1] is 32.1 µM; in [2] it was 39.6 µM; in [3] it was 31.3 µM; in assay [4], 60.7 µM; in [5], 47.2 µM; in assay [6] it was greater than 100 µM. Moreover, the TGI in assay [7] stood at 39 µM; in assay [8], 39.9 µM; in [9], 47.8 µM; in assay [10], 35.7 µM.

Turning to `CN(C)C(=O)OC1=CC2CCC(C1)N2C` (stereo not given), the TGI in assay [1], in assay [2], in [3], in assay [4], in [5] and in [6] was greater than 100 µM in each case. Moreover, the TGI in assay [7], in [8], in assay [9] and in [10] was greater than 100 µM each time.

(Values after PubChem BioAssay (NCI).)
